# Results as given in US11964962B2, “Substituted pyridazinone compound and use thereof” (SHANDONG FIRST MEDICAL UNIVERSITY & SHANDONG ACADEMY OF …, priority 2020, dated 2024).
# Tests used:
# L929 mouse fibroblasts = assay: Cytotoxicity in normal cell line L929 (CCK-8 proliferation assay); type: cell-based; details: 48 h treatment, CCK-8, absorbance 450 nm, read-out: IC50 for proliferation of L929 cell lines
# Procedure: Concentration of L929 mouse fibroblasts was adjusted to 4×10^5 cells/mL. The cells were seeded in a 96 well plate with […] per well. Wells not supplied with the cells (blank group) were provided. The cells were cultivated on the plate and were allowed to adhere overnight. Then, cell culture supernatants were collected, and 200 μL of test compound at various concentrations were added to the corresponding cell culture supernatants. Control and compound-treated cell culture supernatants were included in each experiment with triplicate wells for each experimental group, and were cultivated for a further 48 h. Then, the resulting cell culture supernatants were again collected, and fresh medium supplemented with 10% CCK-8 solution was added thereto. Incubation for an additional 3 h was carried out. Thereafter, the absorbance of the medium was measured at 450 nm wavelength, and the inhibitory rate of cell proliferation by test compound was calculated according to the equation below: R (%)=1−(Aexperiment−Ablank)/(Acontrol−Ablank)
# THRβ = target: T1, THRβ (Homo sapiens, UniProt P10828); assay: THRβ agonist activity, fluorescence ratio 665 nm/615 nm with EE-RxRα and biotin-GRIP; type: biochemical; details: incubated overnight at 4° C.
# T1 construct: GST
# T1 sequence (P10828 1-461): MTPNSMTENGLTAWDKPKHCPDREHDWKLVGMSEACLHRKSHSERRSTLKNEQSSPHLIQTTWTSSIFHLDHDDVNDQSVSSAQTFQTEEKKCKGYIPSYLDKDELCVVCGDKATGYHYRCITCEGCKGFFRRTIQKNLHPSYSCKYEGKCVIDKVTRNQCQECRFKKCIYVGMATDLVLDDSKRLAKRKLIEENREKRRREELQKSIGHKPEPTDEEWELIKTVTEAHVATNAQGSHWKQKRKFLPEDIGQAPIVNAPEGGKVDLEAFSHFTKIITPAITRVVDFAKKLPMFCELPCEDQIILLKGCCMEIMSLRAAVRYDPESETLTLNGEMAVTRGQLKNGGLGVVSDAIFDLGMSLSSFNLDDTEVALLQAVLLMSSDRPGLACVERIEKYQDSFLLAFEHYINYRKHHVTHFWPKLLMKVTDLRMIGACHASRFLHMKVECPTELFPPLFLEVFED
# T1 sequence (P19793 225-462 partner limits assumed): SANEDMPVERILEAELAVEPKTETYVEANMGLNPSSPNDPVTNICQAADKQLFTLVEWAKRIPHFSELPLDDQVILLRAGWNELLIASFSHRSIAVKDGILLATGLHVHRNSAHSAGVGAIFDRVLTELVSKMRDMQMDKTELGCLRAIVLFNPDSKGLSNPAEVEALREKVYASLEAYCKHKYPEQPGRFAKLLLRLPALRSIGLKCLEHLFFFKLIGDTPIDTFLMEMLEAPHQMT
# T1 sequence (Q15596 679-703 partner limits assumed): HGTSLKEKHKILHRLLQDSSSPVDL
# Procedure: (§1) Test compound was dissolved and serially diluted in dimethyl sulfoxide (DMSO) with a final compound concentration of 60 mM. […] Buffer 1 was employed again to prepare EE-RxRα at the same concentrations as those of THRα and THRβ, respectively. Buffer 1+5% DMSO was employed to prepare biotin-GRIP (THRα: […], THRβ: 100 nM). Buffer 2 (50 mM Tris, pH 7.4, 100 mM NaCl, and 0.2 mg/mL BSA) was employed to prepare a mixed solution of 2×Eu-anti-GST and 2×streptavidin-d2. 5 μL of the THRα (THRβ) solution+5 μL of EE-RxRα+2.5 μL of the DMSO solution of test compound+2.5 μL of biotin-GRIP+5 μL of the mixed solution of 2×Eu-anti-GST and 2×streptavidin-d2 was employed as the reaction system, and incubated overnight at 4° C.
# [1] = Metabolic stability in human liver microsomes; type: in vitro ADME; details: pH 7.4, 37° C.; for half-life: read-out: T ½
# Procedure: Microsomal incubations were performed in 0.05 M Tris-KCl buffer (pH 7.4) in the presence of test compound dissolved in DMSO at a series of concentrations, rat liver microsomes (RLMs) (S9 or human liver microsomes (HLMs)), rat liver cytoplasms (RLCs) (human liver cytoplasms (HLCs, 0.5 mg/mL)), 1.3 mM β-nicotinamide adenine dinucleotide phosphate sodium salt (NADP), 3.3 mM D-glucose-6-phosphate disodium salt (G-6-P), 0.4 units/mL glucose-6-phosphate dehydrogenase (G-6-PDH, type XII), and 3.3 mM MgCl2. The volume of the organic solvents was not more than 1% by volume with respect to the reaction system. After a preincubation of the mixture in a rotating mixer at 37° C. and 850 rpm for 3 min, hepatic microsomes were added to initiate incubation reactions, which were conducted at 37° C. for 30 min, 60 min, or 90 min, respectively. After the incubations were complete, the reactions were terminated by addition of an equal volume of ice cold acetonitrile, followed by addition of 20 μL of a 1 mg/mL solution of geniposide (internal standard) in methanol and then by centrifugation at 10,000 rpm for 10 min to precipitate protein. The […] was blown dry with nitrogen at 40° C. and then dissolved in 100 μL of methanol, which was used as mobile phase. 10 μL of the solution was sampled and analyzed by HPLC.
# THRα = target: T2, THRα (Homo sapiens, UniProt P10827); assay: THRα agonist activity, fluorescence ratio 665 nm/615 nm with EE-RxRα and biotin-GRIP; type: biochemical; details: incubated overnight at 4° C.
# T2 construct: GST
# T2 sequence (P10827 1-410 isoform P10827-2): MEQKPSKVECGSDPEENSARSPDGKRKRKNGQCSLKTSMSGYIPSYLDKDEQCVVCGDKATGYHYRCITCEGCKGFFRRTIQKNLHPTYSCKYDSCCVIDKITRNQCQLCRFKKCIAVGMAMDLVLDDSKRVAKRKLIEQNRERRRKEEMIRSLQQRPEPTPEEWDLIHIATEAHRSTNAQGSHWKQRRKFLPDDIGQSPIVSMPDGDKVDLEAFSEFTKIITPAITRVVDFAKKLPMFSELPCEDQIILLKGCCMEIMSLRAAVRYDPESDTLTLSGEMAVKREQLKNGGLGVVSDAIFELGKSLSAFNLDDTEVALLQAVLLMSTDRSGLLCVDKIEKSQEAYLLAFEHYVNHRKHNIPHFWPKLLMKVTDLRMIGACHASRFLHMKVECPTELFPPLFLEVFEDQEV
# T2 sequence (P19793 225-462 partner limits assumed): T1 sequence (P19793 225-462 partner limits assumed)
# T2 sequence (Q15596 679-703 partner limits assumed): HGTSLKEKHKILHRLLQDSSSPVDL
# Procedure: as §1
SMILES,EC50 (THRβ) [µM],microsomal CLint [1] [µL/min/mg],half-life [1] [h],EC50 (THRα) [µM],IC50 (L929 mouse fibroblasts) [µM]
"CC(C)c1cc(Oc2c(Cl)cc(-n3nc(C#N)c(=O)[nH]c3=O)cc2Cl)n[nH]c1=O [MGL-3196, Resmetirom, reference compound]",,2.21,< 6.67,,
CC(C)c1cc(=O)[nH]nc1Oc1cc(Cl)c(-n2nc(C#N)c(=O)[nH]c2=O)cc1Cl [Compound 35],> 60,,,> 60,> 50
CC(C)(C)c1cc(Oc2ccc(-n3nc(C#N)c(=O)[nH]c3=O)c(Cl)c2)n[nH]c1=O [Compound 4],1.57,,,> 60,> 50
"CC(C)c1cc(Oc2c(Cl)cc(-c3nn[nH]n3)cc2Cl)n[nH]c1=O [Compound 49, 6-(2,6-dichloro-4-(2H-tetrazol-5-yl)phenoxy)-4-isopropylpyridazin-3(2H)-one]",0.254,,,3.32,> 50
"CC(C)c1cc(Oc2c(Cl)cc(-c3c[nH]c(=O)c(O)c3)cc2Cl)n[nH]c1=O [Compound 47, 6-(2,6-dichloro-4-(5-hydroxy-6-oxo-1,6-dihydropyridin-3-yl)phenoxy)-4-isopropylpyridazin-3(2H)-one]",1.65,,,17.6,> 50
CC(C)c1cc(Oc2cc(Cl)c(-n3cc(C#N)c(=O)[nH]c3=O)cc2Cl)n[nH]c1=O [Compound 40],> 63,,,24.1,> 50
CC(C)c1cc(Oc2c(Br)cc(-n3nc(C#N)c(=O)[nH]c3=O)cc2Br)n[nH]c1=O [Compound 28],0.102,,,0.0381,> 50
CC(C)c1cc(Oc2ccc(-n3cc(C#N)c(=O)[nH]c3=O)c(Cl)c2)n[nH]c1=O [Compound 41],> 60,,,0.001,> 50

# Further molecules by falling EC50 (THRβ), results first:
EC50 (THRβ) [µM],microsomal CLint [1] [µL/min/mg],half-life [1] [h],EC50 (THRα) [µM],SMILES,IC50 (L929 mouse fibroblasts) [µM]
0.0949,0.18,16.3,2.75,N#Cc1nn(-c2cc(Cl)c(Oc3cc(CC4CCCC4)c(=O)[nH]n3)c(Cl)c2)c(=O)[nH]c1=O [Compound 6],> 50
0.0311,,,2.11,CC(C)(C)Cc1cc(Oc2c(Cl)cc(-n3nc(C#N)c(=O)[nH]c3=O)cc2Cl)n[nH]c1=O [Compound 18],> 50
0.0254,,,3.39,CC(C)Cc1cc(Oc2c(Cl)cc(-n3nc(C#N)c(=O)[nH]c3=O)cc2Cl)n[nH]c1=O [Compound 14],> 50
0.013,0.12,18.3,10,N#Cc1nn(-c2ccc(Oc3cc(CC4CCCC4)c(=O)[nH]n3)c(F)c2)c(=O)[nH]c1=O [Compound 7],> 50
0.0101,0.452,14.5,3.29,Cc1c(Oc2ccc(-n3nc(C#N)c(=O)[nH]c3=O)cc2Cl)n[nH]c(=O)c1C [Compound 24],> 50
